Measured values taken from US6875760B2 (Novo Nordisk A/S, priority 1999, dated 2005).

Biological target: T1, cloned human glucagon receptor (Homo sapiens, UniProt P47871)
T1 construct: expressed in transfected cells; plasma membrane preparation
Experiment: Glucagon Binding Assay (II)
Settings: plasma membranes of BHK cells expressing the receptor; read-out: Glu Bd Assay (II) IC50
Experimental: Binding of compounds to the glucagon receptor was determined in a competition binding assay using the cloned human glucagon receptor.
The receptor inserted in the pLJ6′ expression vector using EcoRI/SSt1 restriction sites (Lok et al.) was expressed in a baby hamster kidney cell line (A3 BHK 570-25).
The homogenate was resuspended and centrifuged again. The final precipitate containing the plasma membranes was suspended in buffer and stored at −80° C. until use.
Binding assays were carried out in duplicate in polypropylene tubes or microtiter plates. The buffer used in this assay was 50 mM HEPES pH 7.4 containing 5 mM EGTA, 5 mM MgCl2 and 0.005% Tween 20. Sample (glucagon (Bachem CA) or test compounds) was added to each tube or well. Tracer (˜25.000 cpm) was diluted in buffer and was added to each tube or well. 0.5 mg freshly thawed plasma membrane protein diluted in buffer was then added in aliquots to each tube or well. Tubes or plates were incubated at 37° C. for 1 hour. Non-specific binding was determined with 10^−7 M of glucagon. Bound tracer and unbound tracer were then separated by vacuum filtration. The tubes or wells were washed twice with 0.01% Triton X-100 buffer. Scintillation fluid was added to the plates and radioactivity was quantified using a scintillation counter.

T1 sequence (P47871 26-477): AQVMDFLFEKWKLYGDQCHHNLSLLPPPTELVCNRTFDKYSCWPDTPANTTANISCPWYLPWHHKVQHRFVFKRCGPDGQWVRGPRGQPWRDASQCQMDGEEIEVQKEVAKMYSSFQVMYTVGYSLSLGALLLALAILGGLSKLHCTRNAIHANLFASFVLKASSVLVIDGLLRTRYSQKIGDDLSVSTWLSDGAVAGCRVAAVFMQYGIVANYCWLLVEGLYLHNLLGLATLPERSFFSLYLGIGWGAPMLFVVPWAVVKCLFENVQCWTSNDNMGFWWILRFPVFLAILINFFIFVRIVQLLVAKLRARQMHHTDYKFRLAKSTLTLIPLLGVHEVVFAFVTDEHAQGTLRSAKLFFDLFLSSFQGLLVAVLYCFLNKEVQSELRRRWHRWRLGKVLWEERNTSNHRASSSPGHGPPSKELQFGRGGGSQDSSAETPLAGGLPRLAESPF

Structure (SMILES) | IC50
O=C(O)CCNC(=O)c1ccc(CN(Cc2ccc(OC(F)(F)F)cc2)[C@H]2CC[C@@H](C3CCCCC3)CC2)cc1 [Example 570, 3-(4-{[(cis-4-Cyclohexylcyclohexyl)-(4-trifluoromethoxybenzyl)amino]methyl}benzoylamino)propionic acid] | 44 nM
CCCCc1ccc(N(Cc2ccc(C(=O)NCCC(=O)O)cc2)C(=O)Nc2ccc(OC(F)(F)F)cc2)cc1 [drawing 1186] | 13 nM
CC(C)S(=O)(=O)Cc1cccc(NC(=O)N(Cc2ccc(C(=O)Nc3nn[nH]n3)cc2)c2ccc(C3CCCCC3)cc2)c1 [Example 389, 4-{1-(4-Cyclohexylphenyl)-3-[3-(propane-2-sulfonylmethyl)phenyl]ureidomethyl}-N-(2H-tetrazol-5-yl)benzamide] | 337 nM
CC(C)(C)[C@H]1CC[C@H](N(Cc2ccc(C(=O)NCCC(=O)O)cc2)Cc2cccc(S(C)(=O)=O)c2)CC1 [Example 613, 3-(4-{[(trans-4-tert-Butylcyclohexyl)-(3-methylsulfonylbenzyl)amino]methyl}benzoylamino)propionic acid] | 578 nM
O=C(Nc1nn[nH]n1)c1ccc(CN(C(=O)Nc2ccc3c(c2)OC(F)(F)C(F)(F)O3)c2ccc(C3CCCCC3)cc2)cc1 [Example 396, 4-[1-(4-Cyclohexylphenyl)-3-(2,2,3,3-tetrafluoro-2,3-dihydrobenzo[1,4]dioxin-6-yl)ureidomethyl]-N-(2H-tetrazol-5-yl)benzamide] | 13 nM
Cc1ccc(NC(=O)N(Cc2ccc(S(=O)(=O)NCCC(=O)O)cc2)C2CCC(C(C)(C)C)CC2)cc1F (stereo not shown) [Example 107, 3-{4-[1-(4-tert-Butylcyclohexyl)-3-(3-fluoro-4-methylphenyl)ureidomethyl]benzenesulfonylamino)propionic acid] | 1200 nM
O=C(O)CCNC(=O)c1ccc(CN(Cc2ccc(OC(F)(F)F)cc2)[C@H]2CC[C@H](C3CCCCC3)CC2)cc1 [Example 387, 3-(4-{[(trans-4-cyclohexylcyclohexyl)-(4-trifluoromethoxybenzyl)amino]methyl}benzoylamino)propionic acid] | 111 nM

Further lines, results first:

IC50 | Structure (SMILES)
16 nM | Cc1cc(C)c(Cc2ccc(C(=O)NN(Cc3ccc(C(=O)NCCC(=O)O)cc3)c3ccc(C4CCCCC4)cc3)o2)c(C)c1 [Example 592, 3-(4-{N-(4-Cyclohexylphenyl)-N′-[5-(2,4,6-trimethylbenzyl)furan-2-carbonyl]hydrazinomethyl}benzoylamino)propionic acid]
20 nM | O=C(O)CCNC(=O)c1ccc(CN(C(=O)Nc2ccc(SC(F)(F)F)cc2)c2ccc(C3CCCCC3)cc2)cc1 [Example 233, 3-{4-[1-(4-Cyclohexylphenyl)-3-(4-trifluoromethylsulfanylphenyl)ureidomethyl]benzoylamino}propionic acid]
112 nM | C[C@H](NC(=O)N(Cc1ccc(C(=O)Nc2nn[nH]n2)cc1)c1ccc(C2CCCCC2)cc1)c1ccccc1 [Example 596, 4-[1-(4-Cyclohexylphenyl)-3-((1S)-1-phenylethyl)ureidomethyl]-N-(2H-tetrazol-5-yl)benzamide]
217 nM | CCCCOC(=O)c1ccc(NC(=O)N(Cc2ccc(C(=O)NCCC(=O)O)cc2)C2CCCCCC2)cc1
188 nM | CCCCOC(=O)c1ccc(NC(=O)N(Cc2ccc(C(=O)NCCC(=O)O)cc2)C2CCC(C)CC2)cc1 (stereo not shown)
18 nM | O=C(O)CCNC(=O)c1ccc(CN(C(=O)Nc2ccc(OC(F)(F)F)cc2)C2CCC(C3CCCCC3)CC2)cc1 (stereo not shown) [Example 577, 3-{4-[1-(4-Cyclohexylcyclohexyl)-3-(4-trifluoromethoxyphenyl)ureidomethyl]benzoylamino}propionic acid]
916 nM | C[C@H](C1CCCCC1)N(Cc1ccc(C(=O)NCCC(=O)O)cc1)C(=O)Nc1ccc2ccccc2c1 [Example 109, 3-{4-[1-((1R)-1-Cyclohexylethyl)-3-naphthalene-2-ylureidomethyl]benzoylamino)propionic acid]

Same assay, conditions: screened at 1 μM; library compounds; read-out: displacement of the glucagon tracer when screened at 1 μM concentration in the glucagon binding assay II

Structure (SMILES) | inhibition at 1 µM
CC(C)(C)C1CCC(N(Cc2ccc(C(=O)Nc3ccc(O)c([N+](=O)[O-])c3)cc2)C(=O)Nc2ccc(Cl)cc2)CC1 (stereo not shown) [Example 162, 4-[1-(4-tert-Butylcyclohexyl)-3-(4-chlorophenyl)ureidomethyl]-N-(4-hydroxy-3-nitrophenyl)benzamide] | > 50%
O=C(O)CCNC(=O)c1ccc(CN(Cc2ccccc2OC(F)(F)F)C(=O)Nc2ccc(SC(F)(F)F)cc2)cc1 [Example 117, 3-{4-[1-(2-Trifluoromethoxybenzyl)-3-(4-trifluoromethylsulfanylphenyl)ureidomethyl]benzoylamino)propionic acid] | > 50%
CN(CCN(Cc1ccc(C(=O)NCCC(=O)O)cc1)C(=O)Nc1cccc(SC(F)(F)F)c1)C(=O)OC(C)(C)C [Example 207, 3-{4-[1-[2-(N-tert-Butoxycarbonyl-N-methylamino)ethyl]-3-(3-trifluoromethylsulfanylphenyl)ureidomethyl]benzoylamino}propionic acid] | > 50%
O=C(O)CCNC(=O)c1ccc(CN(C(=O)Nc2ccc(Cl)c(C(F)(F)F)c2)C2CCC(NC(=O)C(F)(F)F)CC2)cc1 (stereo not shown) [Example 192, 3-(4-{3-(4-Chloro-3-trifluoromethylphenyl)-1-[4-(2,2,2-trifluoroacetylamino)cyclohexyl]ureidomethyl}benzoylamino)propionic acid] | > 50%
O=C(O)CCCOc1ccc(CN(C(=O)Nc2ccc(OC(F)(F)F)cc2)C2C[C@H]2c2ccccc2)cc1 (stereo in doubt) [Example 222, 4-{4-[1-(2-Phenylcyclopropyl)-3-(4-trifluoromethoxyphenyl)ureidomethyl]phenoxy}butyric acid] | > 50%
COc1ccc(CN(Cc2ccc(C(=O)NCCC(=O)O)cc2)Cc2ccc(C(C)C)cc2)cc1OC [Example 149, 3-(4-{[(3,4-Dimethoxybenzyl)-(4-isopropylbenzyl)amino]methyl}benzoylamino)propionic acid] | > 50%
COc1ccc(CN(Cc2ccc(C(=O)NCCC(=O)O)cc2)Cc2cccc(Oc3cccc(C(F)(F)F)c3)c2)cc1OC [Example 151, 3-(4-{[(3,4-Dimethoxybenzyl)-(3-[3-trifluoromethylphenoxy]benzyl)amino]methyl}benzoylamino)propionic acid] | > 50%
CC(C)(C)C1CCC(N(Cc2cccc(C(=O)NCCC(=O)O)c2)C(=O)Nc2cc(Cl)cc(Cl)c2)CC1 (stereo not shown) [Example 135, 3-{3-[1-(4-tert-Butylcyclohexyl)-3-(3,5-dichlorophenyl)ureidomethyl]benzoylamino)propionic acid] | > 50%
CC(C)(C)C1CCC(N(Cc2ccc(OCCCC(=O)O)cc2)C(=O)Nc2ccc(Cl)c(C(F)(F)F)c2)CC1 (stereo not shown) [Example 225, 4-{4-[1-(4-tert-Butylcyclohexyl)-3-(4-chloro-3-trifluoromethylphenyl)ureidomethyl]phenoxy}butyric acid] | > 50%
CCCCOc1ccc(NC(=O)N(Cc2ccc(C(C)(C)C)cc2)Cc2ccc(C(=O)NCCC(=O)O)s2)cc1 [Example 129, 3-{5-[1-(4-tert-Butylbenzyl)-3-(4-butoxyphenyl)ureidomethyl]thiophene-2-carbonylamino)propionic acid] | > 50%
Cc1cc(C)cc(NC(=O)N(Cc2ccc(OCCCC(=O)O)cc2)c2ccc(C3CCCCC3)cc2)c1 [Example 219, 4-{4-[1-(4-Cyclohexylphenyl)-3-(3,5-dimethylphenyl)ureidomethyl]phenoxy}butyric acid] | > 50%
CC(C)(C)C1CCC(N(Cc2ccc(OCCCC(=O)O)cc2)C(=O)Nc2ccc(OC(F)(F)F)cc2)CC1 (stereo not shown) [Example 224, 4-{4-[1-(4-tert-Butylcyclohexyl)-3-(4-trifluoromethoxyphenyl)ureidomethyl]phenoxy}butyric acid] | > 50%

More lines, now with the values ahead:

inhibition at 1 µM | Structure (SMILES)
> 50% | O=C(O)CCNC(=O)c1ccc(CN(C(=O)Nc2ccc(OC(F)(F)F)cc2)c2ccc3nc(S)sc3c2)cc1 [Example 182, 3-{4-[1-(2-Mercaptobenzothiazol-6-yl)-3-(4-trifluoromethoxyphenyl)ureidomethyl]benzoylamino}propionic acid]
> 50% | O=C(O)CCNC(=O)c1ccc(CN(C(=O)Nc2ccc(C(=O)O)cc2)c2ccc3c(c2)OCO3)cc1 [Example 184, 4-{3-(Benzo[1,3]dioxo-5-yl)-3-[4-(2-carboxyethylcarbamoyl)benzyl]ureido}benzoic acid]
> 50% | O=C(O)CCNC(=O)c1ccc(CN(C(=O)Nc2ccc(Cl)c(C(F)(F)F)c2)c2ccc(C3CCCCC3)cc2)cc1 [Example 185, 3-{4-[3-(4-Chloro-3-trifluoromethylphenyl)-1-(4-cyclohexylphenyl)ureidomethyl]benzoylamino}propionic acid]
> 50% | O=C(O)CCNC(=O)c1ccc(CN(Cc2ccc(Br)cc2)C(=O)Nc2ccc(Cl)c(C(F)(F)F)c2)cc1 [Example 190, 3-{4-[1-(4-Bromobenzyl)-3-(4-chloro-3-trifluoromethylphenyl)ureidomethyl]benzoylamino}propionic acid]
> 50% | O=C(O)CCNC(=O)c1ccc(CN(C(=O)Nc2ccc(Cl)c(C(F)(F)F)c2)[C@@H](CO)CC2CCCCC2)cc1 (stereo in doubt) [Example 189, 3-{4-[3-(4-Chloro-3-trifluoromethylphenyl)-1-(2-cyclohexyl-1-hydroxymethylethyl)ureidomethyl]benzoylamino}propionic acid]
